In patent US5424303A, “Substituted aminophosphonate derivatives, process for their preparation and pharmaceutical compositions containing them” (Symphar SA, priority 1992, dated 1995):

Experiments:
[1] = tested on: lipid peroxidation (rat liver homogenate); test: Antioxidant activity, inhibition of iron induced lipid peroxidation in liver homogenate; type: biochemical, Wistar rat; settings: FeSO4, 37° C., 2 h; <25 μM where IC50 was not determined
Description: The liver of a Wistar rat anesthetized with ether was collected and homogenized in 4 volumes of phosphate buffer (+4° C., pH 7.4) by means of a Potter. After centrifugation at 2000 rpm for 10 min the supernatant obtained was kept at +4° C. Lipid peroxidation was carried out in presence of FeSOhd according to the method described by A. T. Quitaniha et at, Ann.
The mixture contained 1.7 ml phosphate buffer, 0.2 ml homogenate and 0.1 ml of a 2 mM FeSO4 solution. The test compounds were added in a volume of 61 μl of ethanol or DMSO. Oxydation was carried out at 37° C. for 2 h and was stopped by the addition of 20 μl of 2% ethanolic solution of BHT.

plasma cholesterol = test: Hypocholesterolemic activity, plasma cholesterol in mice fed test compound in diet; type: in vivo, OF1 strain mice; settings: for change in vivo at 180 mg/kg/day: Mus musculus, feed or water, 240 h, read-out: Plasma Cholesterol (% Control), 0.1% compound in food, 10 days, ca. 180 mg/kg daily, mouse; for decrease plasma cholesterol by: mouse, 0.1% in food, 10 days
Description: A. Hypocholesterolemic activity
Mouse fed a normal diet is a convenient model which was proposed by several authors (P. Olivier et al, Atherosclerosis 70, 107-114, 1988) ,for the screening for hypocholesterolemic drugs. OF1 strain mice (Iffa Credo) weighing between 25 and 35 g were divided into 5 groups of 5 animals each, four groups received the test compounds and the fifth group served as control. The test compounds were dissolved in diethyl ether. The ether solution was added to food to obtain a final concentration of 0.1%. compound in food. Ether was then evaporated at room temperature. The animals were fed for 10 days, the dally food intake corresponds to ca. 180 mg/kg. After an overnight fast, they were sacrificed by decapitation under ether anesthesia. Blood samples were collected using EDTA as anticoagulant.
Plasma cholesterol was measured by an enzymatic test (DIAMED, Morat, Switzerland). The mean values of each group receiving the test or reference compounds were expressed as percent of mean value of the contemporary control.

HMGCoA reductase = test: Inhibition of the enzyme HMGCoA reductase; type: biochemical; settings: positive control
Hep G2 cells = test: Incorporation of 14C acetate in cholesterol synthesized by Hep G2 cells; type: cell-based; settings: positive control
CaCo-2 = type: cell-based
Source text: In these two tests the positive control Lovastatin (hypocholesterolemic drug with HMGCoA reductase inhibitory activity) inhibits the enzyme and the ^14 C acetate incorporation by more than 98%. The mechanism of hypocholesterolemia of this class is different and potentially unique.

[2] = tested on: deposition of cholesterol in the arteries; settings: hereditary atherosclerotic rabbits; cited from earlier work
xanthomas = settings: patients suffering from familial hypercholesterolemia; cited from earlier work

Question: What does the source list for CCOP(=O)(OCC)C(c1cc(C(C)(C)C)c(O)c(C(C)(C)C)c1)N(CCCc1ccccc1)C(C)=O (stereo not drawn) [Compound 60, Diethyl α-(3,5-di-tert-butyl-4-hydroxyphenyl)-N-acetyl-N-(3-phenylpropyl)-aminomethylphosphonate]?
Answer: IC50 [1]: 2.6 µM; change in vivo at 180 mg/kg/day (plasma cholesterol): -49%; decrease plasma cholesterol by (plasma cholesterol): more than 30%

Question: Which results are given for CCCOP(=O)(OCCC)C(c1cc(C(C)(C)C)c(O)c(C(C)(C)C)c1)N(CCCc1ccccc1)C(C)=O (stereo not shown) [Compound 61]?
Answer: IC50 [1]: < 25 µM; change in vivo at 180 mg/kg/day (plasma cholesterol): -43%; decrease plasma cholesterol by (plasma cholesterol): more than 30%

Question: Which IC50 [1] does the source give for CC(=O)N(CCCc1ccccc1)C(c1cc(C(C)(C)C)c(O)c(C(C)(C)C)c1)P(=O)(OC(C)C)OC(C)C (stereo not shown) [Compound 62] here?
Answer: < 25 µM

Question: And the change in vivo at 180 mg/kg/day (plasma cholesterol)?
Answer: -32%

Question: What about the “decrease plasma cholesterol by” value (plasma cholesterol) of the same compound?
Answer: more than 30%

Question: Which IC50 [1] does the source give for CCCCOP(=O)(OCCCC)C(c1cc(C(C)(C)C)c(O)c(C(C)(C)C)c1)N(CCCc1ccccc1)C(C)=O (stereo not shown) [Compound 63] here?
Answer: < 25 µM

Question: What about the change in vivo at 180 mg/kg/day (plasma cholesterol) of the same compound?
Answer: 4%

Question: Which IC50 [1] does the source give for CCOP(=O)(OCC)C(NC1CCCCC1)c1cc(C(C)(C)C)c(O)c(C(C)(C)C)c1 (stereo not shown) [Compound 65] here?
Answer: < 25 µM

Question: What about the change in vivo at 180 mg/kg/day (plasma cholesterol) of the same compound?
Answer: 7%

Question: What does the source list for CCOP(=O)(OCC)C(NCCCc1ccccc1)c1cc(C(C)(C)C)c(OC)c(C(C)(C)C)c1 (stereo not drawn) [Compound 67, Diethyl α-(3.5-di-tert-butyl-4-methoxyphenyl)-N-(3-phenylpropyl)-aminomethylphosphonate]?
Answer: IC50 [1]: > 25 µM; change in vivo at 180 mg/kg/day (plasma cholesterol): -22%

Question: What does the source list for CCOP(=O)(OCC)C(Cc1cc(C(C)(C)C)c(O)c(C(C)(C)C)c1)NCCCc1ccccc1 (stereo not drawn) [Compound 68, Diethyl α-(3,5-di-tert-butyl-4-hydroxybenzyl)-N-(3-phenylpropyl)-aminomethylphosphonate]?
Answer: IC50 [1]: < 25 µM; change in vivo at 180 mg/kg/day (plasma cholesterol): -18%

Question: For CCOP(=O)(OCC)C(NCc1ccccc1)c1ccc(O)c(OC)c1 (stereo not shown) [Compound 70], which IC50 [1] is on record?
Answer: > 25 µM

Question: What about the change in vivo at 180 mg/kg/day (plasma cholesterol) of the same compound?
Answer: -10%

Question: Which results are given for CCOP(=O)(OCC)C(NCc1ccccc1)c1cc(OC)c(O)c(OC)c1 (stereo not shown) [Compound 71]?
Answer: IC50 [1]: > 25 µM; change in vivo at 180 mg/kg/day (plasma cholesterol): 1%

Question: What does the source list for CCOP(=O)(OCC)C(NCCc1ccccc1)c1cc(C)c(O)c(C)c1 (stereo not shown) [Compound 72]?
Answer: IC50 [1]: > 25 µM; change in vivo at 180 mg/kg/day (plasma cholesterol): -1%

Question: Which results are given for CCOP(=O)(OCC)C(NCCc1ccccc1)c1cc(C(C)CC)c(O)c(C(C)CC)c1 (stereo not drawn) [Compound 73, Diethyl α-(3,5 di-sec-butyl-4-hydroxyphenyl)-N-(2-phenylethyl) aminomethylphosphonate]?
Answer: IC50 [1]: 2.9 µM; change in vivo at 180 mg/kg/day (plasma cholesterol): -40%; decrease plasma cholesterol by (plasma cholesterol): more than 30%

Question: Which IC50 [1] does the source give for CCOP(=O)(OCC)C(NCCc1ccccc1)c1cc(C(C)C)c(O)c(C(C)C)c1 (stereo not shown) [Compound 74] here?
Answer: 4.4 µM

Question: What about the change in vivo at 180 mg/kg/day (plasma cholesterol) of the same compound?
Answer: -16%

Question: What does the source list for CCOP(=O)(OCC)C(NCCc1ccccc1)c1cc(C)c(O)c(C(C)(C)C)c1 (stereo not shown) [Compound 75]?
Answer: IC50 [1]: 4.8 µM; change in vivo at 180 mg/kg/day (plasma cholesterol): -12%

Question: Which results are given for CCOP(=O)(OCC)C(NCCc1ccc(Cl)cc1)c1ccc(O)cc1 (stereo not shown) [Compound 76]?
Answer: IC50 [1]: > 25 µM; change in vivo at 180 mg/kg/day (plasma cholesterol): -16%

Question: Which IC50 [1] does the source give for CCOP(=O)(OCC)C(NCCCc1ccccc1)c1ccc(O)c([N+](=O)[O-])c1 (stereo not shown) [Compound 77] here?
Answer: > 25 µM

Question: And the change in vivo at 180 mg/kg/day (plasma cholesterol)?
Answer: -3%

Question: For CCOP(=O)(OCC)C(NCCCc1ccccc1)c1ccc(O)c(O)c1 (stereo not shown) [Compound 78], which IC50 [1] is on record?
Answer: < 25 µM

Question: And the change in vivo at 180 mg/kg/day (plasma cholesterol)?
Answer: -5%

Question: For CCOP(=O)(OCC)C(NCCCc1ccccc1)c1ccc(OC)cc1 (stereo not shown) [Compound 79], which IC50 [1] is on record?
Answer: > 25 µM

Question: And the change in vivo at 180 mg/kg/day (plasma cholesterol)?
Answer: 9%

Question: For CCOP(=O)(OCC)C(NCCCc1ccccc1)c1ccc2c(c1)OCO2 (stereo not drawn) [Compound 80, Diethyl α-(3,4t-methylenedioxyphenyl)-N-(3-phenylpropyl)-aminomethylphosphonate], which IC50 [1] is on record?
Answer: > 25 µM

Question: What about the change in vivo at 180 mg/kg/day (plasma cholesterol) of the same compound?
Answer: -29%

Question: For CC[C@H](C)C(=O)O[C@H]1C[C@@H](C)C=C2C=C[C@H](C)[C@H](CC[C@@H]3C[C@@H](O)CC(=O)O3)[C@H]21 [Lovastatin], which “inhibition of HMGCoA reductase” value (HMGCoA reductase) is on record?
Answer: more than 98%

Question: What about the “inhibition of 14C acetate incorporation, Hep G2” value (Hep G2 cells) of the same compound?
Answer: more than 98%

Question: And the “inhibition of 14C acetate incorporation, CaCo-2” value (CaCo-2)?
Answer: more than 98%

Question: For CC(C)(Sc1cc(C(C)(C)C)c(O)c(C(C)(C)C)c1)Sc1cc(C(C)(C)C)c(O)c(C(C)(C)C)c1 [Probucol], which “effect on deposition of cholesterol in the arteries (in words)” value [2] is on record?
Answer: prevents the deposition of cholesterol in the arteries

Question: And the IC50 [1]?
Answer: > 25 µM

Question: And the “effect on xanthomas (in words)” value (xanthomas)?
Answer: induces the regression of xanthomas
